The source of these data is publication PMC4503722, “Novel Phenotypic Outcomes Identified for a Public Collection of Approved Drugs from a Publicly Accessible Panel of Assays” (PLoS ONE, 2015).

In assay [1] the test system is NCI-H716 cells. Description: cells. The conditions noted are these: for IC50/EC50, hNCI-H716 GLP1 Secretion (assay number 12): concentration response. It is filed as cell-based, Human.
Assay [2] deals with STC-1 cell line. In kind it is cell-based, mouse. Particulars: for IC50/EC50, mSTC-1 GLP1 Secretion (assay number 13): concentration response.

Read-outs that look alike come from different tables or passages of the source.

Take `Cc1cc(N)c2cc(NC(=O)Nc3ccc4nc(C)cc(N)c4c3)ccc2n1` [NCGC00013130-04]: the “hNCI-H716 GLP1 Secretion IC50/EC50” value in assay [1] (assay number 12) came out at 34.2472 µM. In addition, the “mSTC-1 GLP1 Secretion IC50/EC50” value in assay [2] (assay number 13) is recorded as above 40 µM.
The like results for `CC(=O)OC(C)C[N+](C)(C)C.[Cl-]` (stereo not drawn) [NCGC00015045-09] were, in that order, above 40 µM and above 40 µM.
Consider `CC(C)(Oc1ccc(C2CC2(Cl)Cl)cc1)C(=O)O` (stereo not drawn) [NCGC00015202-08], for which, in assay [1] (assay number 12), the “hNCI-H716 GLP1 Secretion IC50/EC50” value is on record as above 40 µM. In assay [2] (assay number 13), the “mSTC-1 GLP1 Secretion IC50/EC50” value was above 40 µM.
As to `C=Cc1c(C)c2cc3[nH]c(cc4nc(cc5nc(cc1[nH]2)C(C)=C5CCC(=O)O)C(CCC(=O)O)=C4C)c(C)c3C=C` [NCGC00015844-10], the “hNCI-H716 GLP1 Secretion IC50/EC50” value in assay [1] (assay number 12) is 19.5523 µM. In addition, the “mSTC-1 GLP1 Secretion IC50/EC50” value in assay [2] (assay number 13) is above 40 µM.
With `CN(C(=O)CN(CCO)CC(=O)N(C)C(C)(C)Cc1ccccc1)C(C)(C)Cc1ccccc1` [NCGC00016382-07], in assay [1], the “IC50/EC50, hNCI-H716 GLP1 Secretion (assay number 12)” value (from here on “IC50/EC50, hNCI-H716 GLP1 Secretion”) worked out at 25.0515 µM. In assay [2], the “IC50/EC50, mSTC-1 GLP1 Secretion (assay number 13)” value (“IC50/EC50, mSTC-1 GLP1 Secretion” below) is on record as above 40 µM.
For `Cc1c(NC(C)C)c(=O)n(-c2ccccc2)n1C` [NCGC00016735-06], the “hNCI-H716 GLP1 Secretion IC50/EC50” value in assay [1] (assay number 12) is above 40 µM. The “mSTC-1 GLP1 Secretion IC50/EC50” value in assay [2] (assay number 13) was above 40 µM.
As for `CN[C@@H]1[C@H](O)[C@H](NC)[C@H]2O[C@@]3(O)C(=O)C[C@@H](C)O[C@H]3O[C@@H]2[C@H]1O.Cl.Cl` [NCGC00017354-07], in assay [1] (assay number 12), the “hNCI-H716 GLP1 Secretion IC50/EC50” value was above 40 µM. In assay [2] (assay number 13), the “mSTC-1 GLP1 Secretion IC50/EC50” value is listed as above 40 µM.
`C/C=C(/C(=C/C)c1ccc(O)cc1)c1ccc(O)cc1` [NCGC00018153-10]: in assay [1], the “IC50/EC50, hNCI-H716 GLP1 Secretion” value is recorded as above 40 µM. Also, in assay [2], the “IC50/EC50, mSTC-1 GLP1 Secretion” value was above 40 µM.
With `CCCCCCCCN[C@@H](C)[C@H](O)c1ccc(SC(C)C)cc1` [NCGC00018301-05], the “IC50/EC50, hNCI-H716 GLP1 Secretion” value in assay [1] is 13.0298 µM. Moreover, the “IC50/EC50, mSTC-1 GLP1 Secretion” value in assay [2] is given as above 40 µM.
As for `c1ccc2ccccc2c1` [NCGC00090793-05], the “hNCI-H716 GLP1 Secretion IC50/EC50” value in assay [1] (assay number 12) stood at 20.7685 µM. Also, the “mSTC-1 GLP1 Secretion IC50/EC50” value in assay [2] (assay number 13) is reported as above 40 µM.
Turning to `CC(=O)NO` [NCGC00094576-05], in assay [1] (assay number 12), the “hNCI-H716 GLP1 Secretion IC50/EC50” value is recorded as above 40 µM. In addition, the “mSTC-1 GLP1 Secretion IC50/EC50” value in assay [2] (assay number 13) is listed as above 40 µM.
On to `CCCCC(CC)CN1CN(CC(CC)CCCC)CC(C)(N)C1` (stereo not drawn) [NCGC00094819-07], for which the “hNCI-H716 GLP1 Secretion IC50/EC50” value in assay [1] (assay number 12) was determined as 36.4422 µM. Besides, the “mSTC-1 GLP1 Secretion IC50/EC50” value in assay [2] (assay number 13) came to 26.5729 µM.
The like results for `CCCCCCCCCCCCCCCCCCOCC(O)CO` (stereo not drawn) [NCGC00095748-04] were, in that order, above 40 µM and above 40 µM.
The like results for `CC1=C(C(=O)O)N2C(=O)[C@@H](NC(=O)[C@H](N)c3ccccc3)[C@H]2SC1` [NCGC00159522-05] were, in that order, above 40 µM and above 40 µM.
On to `O=c1oc2ccccc2c(O)c1C(CC(O)c1ccc(-c2ccc(Br)cc2)cc1)c1ccccc1` (stereo not drawn) [NCGC00163939-02], for which, in assay [1], the “hNCI-H716 GLP1 Secretion IC50/EC50” value is above 40 µM. In addition, the “mSTC-1 GLP1 Secretion IC50/EC50” value in assay [2] was found to be 9.1609 µM.
